We go through 1 compound from patent US20230321043A1, “COMPOUNDS HAVING PSEUDOMONAS ANTI-BIOFILM PROPERTIES” (Københavns Universitet, priority 2020, published 2023).

Each structure is given as a SMILES string.

For experiment [1], the system named is c-di-GMP level of P. aeruginosa ΔwspFΔpelΔpsl/pCdrA-gfp. Nature of the experiment: microbe, parasite or virus in culture. It counts as cell-based, Pseudomonas aeruginosa. On the procedure:
The ΔwspF mutant overproduces c-di-GMP and the ΔpelΔpsl mutations renders the bacteria deficient in exopolysaccharide production, which keeps the growing bacteria in the planktonic mode.
The reduction of total cellular c-di-GMP level was determined as follows. To evaluate the impact of the various compounds on the c-di-GMP level of P. aeruginosa ΔwspFΔpelΔpsl/pCdrA-gfp, 20 hour old cultures of the strain were diluted 100 fold in microtiter plate wells (Nunc) containing […] aliquots of ABTrace medium supplemented with 0.2% glucose, 0.5% casamino acids, 60 μg/ml gentamicin, 1 μM FeCl3, 1% DMSO, and concentrations of compounds as indicated.
Subsequently the microtiter plates were incubated at 37° C. and 440 RPM in a TECAN reader (Infinite F200 PRO), and corresponding values of cell density (OD600) and GFP fluorescence were measured every 20 minutes for 24 hours. The reduction values indicated in the tables are calculated as fluorescence values divided by optical density at a time point where this value reached a plateau.
The resulting microtiter trays were incubated at 37° C. at 440 RPM in a TECAN reader (Infinite F200 PRO), and corresponding values of GFP flourescence (FU) and cell density (OD600) were measured every 20 minutes for 24 hours. […] In FIG. 3A and 3B, means and standard deviations (bars) represents 3 biological replicates (n=3).

Experiment [2] has as its system P. aeruginosa biofilm on urinary tract catheters. Kind of experiment: catheter associated urinary tract infection model in mice. It counts as in vivo. On the procedure:
Silicone catheters (5 mm long, 0.64 mm OD×0.3 mm ID) incubated with P. aeruginosa cultures (OD 1) for 22 hours to allow bacterial adhesion and subsequent coating. Mice then had the catheters inserted in the bladder and biofilm developed on the catheters for 24 hours. […] At 48 hours post-insertion the mice were euthanized, and the bacterial contents as CFU per implant were determined. Two experiments were pooled, and the median CFU per implant for the placebo group was set to 100. Horizontal lines indicate median CFU for each group. Each symbol represents a mouse. IP administered doses: H6 P1: 2×13 mg/Kg BW, CIP: 2×1 mg/Kg BW.
Silicone catheters (5 mm long, 0.64 mm OD×0.3 mm ID) incubated with P. aeruginosa cultures (OD 1) for 22 hours to allow bacterial adhesion and subsequent coating. Mice then had the catheters inserted in the bladder and biofilm developed on the catheters for 24 hours. […] At 48 hours post-insertion the mice were euthanized, and the bacterial contents as CFU per implant were determined. The median CFU per catheter for the control groups were set to 100. The median CFU per catheter for the placebo groups were 3×10^5 and 7×10^4. Horizontal lines indicate median CFU for each group. Each symbol represents one mouse. Orally administered doses: 2×13 mg/Kg BW, 2×3.3 mg/Kg BW. […]

Experiment [3] has as its system P. aeruginosa (PA01) tagged with GFP biofilm. Nature of the experiment: flow-chamber biofilm, confocal laser scanning microscopy. The class given is cell-based, Pseudomonas aeruginosa. The protocol: Biofilms were grown at 37° C. in continuous-culture, once-through, three-channel, flow-chambers (individual channel dimensions of 1×4×40 mm) perfused with sterile AB trace minimal medium (Pamp and Tolker-Nielsen, 2007), supplemented with 0.3 mM glucose and 0.025% (v/v) DMSO. P. aeruginosa (PA01) tagged with GFP at a neutral chromosomal locus was used for the experiments. After a static attachment phase of 1 h, the flow of medium was turned on and the biofilms were allowed to establish for 48 h in the absence (untreated) or presence (treated) of medium supplemented with 25 μM of H6-335-P1. Confocal laser scanning microscopy was used to image the biofilms after 24 h and 48 h (FIG. 5A).
Confocal laser scanning microscopy was used to image the biofilm immediately before H6-335-P1 was added, and after 4 h of H6-335-P1 treatment. Simulated fluorescence projections in 3D were generated from the image stacks using the IMARIS software package (Bitplane, Oxford Imaging, UK) and the resulting images were processed for publication using Photoshop (Adobe, USA).

A further experiment deals with P. aeruginosa biofilms. Kind of experiment: time dependent antibiotic killing of peg biofilms after H6-335-P1 treatment. The class given is cell-based, Pseudomonas aeruginosa. Conditions: 2 hours 100 μM H6-335-P1, then 30 μg/ml tobramycin or 0.5 μg/ml ciprofloxacin.
A further experiment deals with Escherichia coli. Nature of the experiment: biofilm formation / dispersal, host range. It counts as cell-based. The settings on record: data not shown.

In the case of `N=C1NN=C(N)/C1=N/Nc1ccccc1F` [H6-335-P1, 4-[(2-fluorophenyl) hydrazinylidene]pyrazole-3,5-diamine], the “reduction of the fluorescence output of the c-di-GMP monitor cultures” value in experiment [1] (100 μM, compared with control cultures with 1% DMSO) is on record as 80%. In experiment [1] (Pseudomonas aeruginosa, read-out: Reduction of total cellular c-di-GMP level), the inhibition at 100 µM was found to be 80%. Further, the “number of bacteria on the catheters, intraperitoneal administration” value in experiment [2] (given as H6-335-P1:HCl 2×13 mg/Kg BW IP, with or without ciprofloxacin, FIG. 10A) is recorded as “reduced the number of bacteria on the catheters”. The “biofilm mass on the catheters, oral administration” value in experiment [2] (given as H6-335-P1:HCl in Nutella, as low as […] (3.3 mg/Kg BW), FIG. 10B) is reported as “significantly reduces the biofilm mass on the catheters”. In addition, in experiment [3] (25 μM in the growth medium, 48 h, FIG. 5A), the “prevention of biofilm formation in flow-through cells” value was “significantly prevented biofilm formation”. In addition, the “biofilm biomass left behind” value in experiment [3] (25 μM, 48 h old biofilm, after four hours of exposure, FIG. 5B) was found to be 10%. Besides, in the experiment on P. aeruginosa biofilms, the “surviving cells of biofilms after antibiotic challenge” value is recorded as “substantial decrease of surviving cells”. The “biofilm formation of Escherichia coli” value in the experiment with Escherichia coli was “failed to reduce biofilm formation”.
